Experiments:
[1] = near-infrared fluorescence signal intensity of ICG-MAA complexes at various ICG/MAA mixing ratios; format: physicochemical; conditions: for near-infrared fluorescence signal intensity: MAA 0 mg/mL
[2] = cited from earlier work

## CC1(C)C(/C=C/C=C/C=C/C=C2\N(CCCCS(=O)(=O)O)c3ccc4ccccc4c3C2(C)C)=[N+](CCCCS(=O)(=O)[O-])c2ccc3ccccc3c21 [ICG, indocyanine green]
[1]; ICG 1.3 (μN)
  near-infrared fluorescence signal intensity: 18
[1]; ICG 3.9 (μN)
  near-infrared fluorescence signal intensity: 120
[1]; ICG 6.5 (μN)
  near-infrared fluorescence signal intensity: 212
[1]; ICG 9.0 (μN)
  near-infrared fluorescence signal intensity: 289
[1]; ICG 12.9 (μN)
  near-infrared fluorescence signal intensity: 363
[1]; ICG 25.8 (μN)
  near-infrared fluorescence signal intensity: 466
[1]; ICG 38.7 (μN)
  near-infrared fluorescence signal intensity: 425
[1]; ICG 51.6 (μN)
  near-infrared fluorescence signal intensity: 399
[1]; ICG 64.5 (μN)
  near-infrared fluorescence signal intensity: 374
[1]; ICG 77.4 (μN)
  near-infrared fluorescence signal intensity: 332
[1]; ICG 103 (μN)
  near-infrared fluorescence signal intensity: 289
[1]; ICG 258 (μN)
  near-infrared fluorescence signal intensity: 139
[1]; ICG 516 (μN)
  near-infrared fluorescence signal intensity: 71
[1]; ICG 774 (μN)
  near-infrared fluorescence signal intensity: 39
[1]; ICG 1032 (μN)
  near-infrared fluorescence signal intensity: 30
[1]; MAA was not treated
  ICG concentration with the highest value of near-infrared fluorescence signal intensity: 25.8 µM
[2]; 18 breast cancer patients (T. Kitai, et al., Breast Cancer, 12:211-215, 2005)
  clinical safety: safe clinical use
[2]; human body
  elimination after injection into the human body: decomposed and disappears or is excreted in the urine or feces within an hour
